As usually defined, the IC50 is the concentration that gives 50% inhibition.

In the assay the target is human PCSK9 (Homo sapiens, UniProt Q8NBP7). The assay is described as follows: PCSK9 ligand binding TR-FRET assay (interference with binding of human PCSK9 to human LDLR). As to conditions: for Max % inhibition: PCSK9 FRET assay, efficacy (Amax), 100% = 1 uM unlabeled human PCSK9, 0% = DMSO; for IC50: TR-FRET, human PCSK9 Alexa Fluor 647 / human LDLR extracellular domain-Europium Kryptate, read-out: PCSK9 FRET Assay IC50. Summed up:
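Threefold compound dilutions were pre-incubated 30 min with PCSK9, after which 4 nM Europium Kryptate-tagged human LDLR ectodomain was added for a further 2 h.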
(In general: In TR-FRET formats the signal depends on donor and acceptor labels being close together.)

Sequence of human PCSK9 (Q8NBP7 153-692): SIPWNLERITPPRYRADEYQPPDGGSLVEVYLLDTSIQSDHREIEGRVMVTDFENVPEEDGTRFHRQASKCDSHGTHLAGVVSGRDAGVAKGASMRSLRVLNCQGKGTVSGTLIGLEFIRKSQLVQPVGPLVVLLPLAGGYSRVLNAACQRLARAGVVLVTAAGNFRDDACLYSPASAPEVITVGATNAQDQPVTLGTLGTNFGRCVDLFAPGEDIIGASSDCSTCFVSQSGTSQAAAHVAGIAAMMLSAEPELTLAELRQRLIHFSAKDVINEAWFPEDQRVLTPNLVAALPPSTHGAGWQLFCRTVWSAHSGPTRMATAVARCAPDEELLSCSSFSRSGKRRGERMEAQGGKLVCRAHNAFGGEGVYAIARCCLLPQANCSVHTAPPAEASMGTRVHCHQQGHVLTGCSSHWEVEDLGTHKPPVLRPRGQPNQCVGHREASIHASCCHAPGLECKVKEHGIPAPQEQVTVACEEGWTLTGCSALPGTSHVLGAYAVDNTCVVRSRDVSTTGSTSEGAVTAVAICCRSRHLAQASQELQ
Sequence of human PCSK9 (Q8NBP7 31-152 partner limits assumed): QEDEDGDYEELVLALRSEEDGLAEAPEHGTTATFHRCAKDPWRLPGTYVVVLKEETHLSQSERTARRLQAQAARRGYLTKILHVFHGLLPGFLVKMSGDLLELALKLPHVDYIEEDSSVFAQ

For the compound `COC[C@@H]1NC(=O)[C@H](C)N(Cc2ccc(Cl)cc2Oc2ccc(-c3cncc(CN4CCCC4)c3C)cc2)C(=O)C[C@@H](Cc2ccccc2)C(=O)N(C)[C@@H](C)CNC(=O)C[C@H](Cc2ccc(Cl)cc2)N(C)C1=O` [Compound 301, (2S,5S,8S,13S,16R)-16-benzyl-1-(4-chloro-2-(4-(4-methyl-5-(pyrrolidin-1-ylmethyl)pyridin-3-yl)phenoxy)benzyl)-8-(4-chlorobenzyl)-5-(methoxymethyl)-2,7,13,14-tetramethyl-1,4,7,11,14-pentaazacyclooctadecane-3,6,10,15,18-pentaone], the Max % inhibition came out at 54.20% and the IC50 amounted to 3.9 nM.

On to `CCN(CC)Cc1cn(-c2ccc(Oc3cc(Cl)ccc3CN3C(=O)C[C@@H](Cc4ccccc4)C(=O)N(C)[C@@H](C)CNC(=O)C[C@H](Cc4ccc(Cl)cc4)N(C)C(=O)[C@H](COC)NC(=O)[C@@H]3C)cc2)nn1` [Compound 120, (2S,5S,8S,13S,16R)-16-benzyl-1-(4-chloro-2-(4-(4-((diethylamino)methyl)-1H-1,2,3-triazol-1-yl)phenoxy)benzyl)-8-(4-chlorobenzyl)-5-(methoxymethyl)-2,7,13,14-tetramethyl-1,4,7,11,14-pentaazacyclooctadecane-3,6,10,15,18-pentaone], for which the Max % inhibition came to 48.04% and the IC50 amounted to 23.6 nM.

Turning to `COC[C@@H]1NC(=O)[C@H](C)N(Cc2ncccc2Oc2ccc(-c3cnc(CN(C)C)n3C)cc2)C(=O)C[C@@H](Cc2ccccc2)C(=O)N(C)[C@@H](C)CNC(=O)C[C@H](Cc2ccc(Cl)cc2)N(C)C1=O` [Compound 214, (2S,5S,8S,13S,16R)-16-benzyl-8-(4-chlorobenzyl)-1-((3-(4-(2-((dimethylamino)methyl)-1-methyl-1H-imidazol-5-yl)phenoxy)pyridin-2-yl)methyl)-5-(methoxymethyl)-2,7,13,14-tetramethyl-1,4,7,11,14-pentaazacyclooctadecane-3,6,10,15,18-pentaone], the Max % inhibition turned out to be 97.43% and the IC50 turned out to be 33.2 nM.

`COC[C@@H]1NC(=O)[C@H](CCCN(C)C)N(Cc2ccc(Cl)cc2Oc2ccc(-c3cnc(CN(C)C)n3C)cc2)C(=O)C[C@@H](Cc2ccccc2)C(=O)N(C)[C@@H](C)[C@H](C)NC(=O)C[C@H](Cc2ccc(Cl)cc2)N(C)C1=O` [Compound 90, (2S,5S,8S,12S,13S,16R)-16-benzyl-1-(4-chloro-2-(4-(2-((dimethylamino)methyl)-1-methyl-1H-imidazol-5-yl)phenoxy)benzyl)-8-(4-chlorobenzyl)-2-(3-(dimethylamino)propyl)-5-(methoxymethyl)-7,12,13,14-tetramethyl-1,4,7,11,14-pentaazacyclooctadecane-3,6,10,15,18-pentaone]: the Max % inhibition turned out to be 101.52% and the IC50 was found to be 2.1 nM.

For `COC[C@@H]1NC(=O)[C@H](C)N(Cc2ccc(Cl)cc2Oc2ccc(-c3cnc(CN4CC[C@@H](F)C4)n3C)cc2)C(=O)C[C@@H](Cc2ccccc2)C(=O)N(C)[C@@H](C)CNC(=O)C[C@H](Cc2ccc(Cl)cc2)N(C)C1=O` [Compound 60, (2S,5S,8S,13S,16R)-16-benzyl-1-(4-chloro-2-(4-(2-(((R)-3-fluoropyrrolidin-1-yl)methyl)-1-methyl-1H-imidazol-5-yl)phenoxy)benzyl)-8-(4-chlorobenzyl)-5-(methoxymethyl)-2,7,13,14-tetramethyl-1,4,7,11,14-pentaazacyclooctadecane-3,6,10,15,18-pentaone], the Max % inhibition is 82.23% and the IC50 came out at 2.9 nM.

For the compound `C=CC[C@@H]1CC(=O)N(Cc2ccc(Cl)cc2Oc2ccc(-c3cnc(CN(C)C)n3C)cc2)[C@@H](C)C(=O)N[C@@H](COC)C(=O)N(C)[C@@H](Cc2ccc(Cl)cc2)CC(=O)N[C@@H](C)[C@H](C)N(C)C1=O` [Compound 289, (2S,5S,8S,12S,13S,16R)-16-allyl-1-(4-chloro-2-(4-(2-((dimethylamino)methyl)-1-methyl-1H-imidazol-5-yl)phenoxy)benzyl)-8-(4-chlorobenzyl)-5-(methoxymethyl)-2,7,12,13,14-pentamethyl-1,4,7,11,14-pentaazacyclooctadecane-3,6,10,15,18-pentaone], the Max % inhibition was 100.92% and the half-maximal inhibitory concentration (IC50) was 0.6 nM.

Consider `C[C@H]1CNC(=O)C[C@H](Cc2ccc(Cl)cc2)NC(=O)[C@H](CF)NC(=O)[C@H](C)N(Cc2ccc(Cl)cc2Oc2ccc(-c3cnc(CN4CCCC4)n3C)cc2)C(=O)C[C@@H](Cc2ccccc2)C(=O)N1C` [Compound 25, (2S,5R,8S,13S,16R)-16-benzyl-1-(4-chloro-2-(4-(1-methyl-2-(pyrrolidin-1-ylmethyl)-1H-imidazol-5-yl)phenoxy)benzyl)-8-(4-chlorobenzyl)-5-(fluoromethyl)-2,13,14-trimethyl-1,4,7,11,14-pentaazacyclooctadecane-3,6,10,15,18-pentaone], for which the Max % inhibition is recorded as 52.86% and the IC50 is 113 nM.

For the compound `COC[C@@H]1NC(=O)[C@H](C)N(Cc2ccc(F)cc2Oc2ccc(-c3cnc(CN(C)C)n3C)cc2)C(=O)C[C@@H](Cc2ccccc2)C(=O)N(C)[C@@H](C)CNC(=O)C[C@H](Cc2ccc(Cl)cc2)N(C)C1=O` [Compound 199, (2S,5S,8S,13S,16R)-16-benzyl-8-(4-chlorobenzyl)-1-(2-(4-(2-((dimethylamino)methyl)-1-methyl-1H-imidazol-5-yl)phenoxy)-4-fluorobenzyl)-5-(methoxymethyl)-2,7,13,14-tetramethyl-1,4,7,11,14-pentaazacyclooctadecane-3,6,10,15,18-pentaone], the Max % inhibition is given as 100.29% and the IC50 came out at 24.8 nM.

Take `COC[C@@H]1NC(=O)[C@H](C)N(Cc2ccc(Cl)cc2Oc2ccc(-c3cnc(CN4CCCC4)n3C)cc2)C(=O)C[C@@H](Cc2cccc(OC(F)(F)F)c2)C(=O)N(C)[C@@H](C)CNC(=O)C[C@H](Cc2ccc(Cl)cc2)N(C)C1=O` [Compound 206, (2S,5S,8S,13S,16R)-1-(4-chloro-2-(4-(1-methyl-2-(pyrrolidin-1-ylmethyl)-1H-imidazol-5-yl)phenoxy)benzyl)-8-(4-chlorobenzyl)-5-(methoxymethyl)-2,7,13,14-tetramethyl-16-(3-(trifluoromethoxy)benzyl)-1,4,7,11,14-pentaazacyclooctadecane-3,6,10,15,18-pentaone]: the Max % inhibition was found to be 99.72% and the IC50 is 5.8 nM.

As to `COC[C@H]1C(=O)N(C)[C@@H](Cc2ccc(Cl)cc2)CC(=O)NC[C@H](C)N(C)C(=O)[C@H](Cc2ccccc2)CC(=O)N(Cc2ccc(Cl)cc2Oc2ccc(-c3cnc(CN(C)C)n3C)cc2)[C@H]2CC(=O)N1C2=O` [Compound 13, (2S,5S,10S,13R,17S)-13-benzyl-16-(4-chloro-2-(4-(2-((dimethylamino)methyl)-1-methyl-1H-imidazol-5-yl)phenoxy)benzyl)-5-(4-chlorobenzyl)-2-(methoxymethyl)-4,10,11-trimethyl-1,4,8,11,16-pentaazabicyclo[15.2.1]icosane-3,7,12,15,19,20-hexaone], the Max % inhibition is listed as 101.32% and the IC50 was 106 nM.

Regarding `COC[C@@H]1NC(=O)[C@H](C)N(Cc2ccc(Cl)cc2Oc2ccc(-c3nnc4n3CCNC4)cc2)C(=O)C[C@@H](Cc2ccccc2)C(=O)N(C)[C@@H](C)CNC(=O)C[C@H](Cc2ccc(Cl)cc2)N(C)C1=O` [Compound 114, (2S,5S,8S,13S,16R)-16-benzyl-1-(4-chloro-2-(4-(5,6,7,8-tetrahydro-[1,2,4]triazolo[4,3-a]pyrazin-3-yl)phenoxy)benzyl)-8-(4-chlorobenzyl)-5-(methoxymethyl)-2,7,13,14-tetramethyl-1,4,7,11,14-pentaazacyclooctadecane-3,6,10,15,18-pentaone], the Max % inhibition was found to be 57.46% and the IC50 is 4.5 nM.

As for `COC[C@@H]1NC(=O)[C@H](CC(=O)N2CCOCC2)N(Cc2ccc(Cl)cc2Oc2ccc(-c3cnc(CN(C)C)n3C)cc2)C(=O)C[C@@H](Cc2ccccc2)C(=O)N(C)[C@@H](C)CNC(=O)C[C@H](Cc2ccc(Cl)cc2)N(C)C1=O` [Compound 38, (2S,5S,8S,13S,16R)-16-benzyl-1-(4-chloro-2-(4-(2-((dimethylamino)methyl)-1-methyl-1H-imidazol-5-yl)phenoxy)benzyl)-8-(4-chlorobenzyl)-5-(methoxymethyl)-7,13,14-trimethyl-2-(2-morpholino-2-oxoethyl)-1,4,7,11,14-pentaazacyclooctadecane-3,6,10,15,18-pentaone], the Max % inhibition was 101.48% and the IC50 amounted to 2.1 nM.

In the case of `COC[C@@H]1NC(=O)C(C)N(Cc2c(F)cc(F)cc2Oc2ccc(-c3cnc(CN(C)C)n3C)cc2)C(=O)C[C@@H](Cc2ccccc2)C(=O)N(C)[C@H]2CCCC[C@@H]2NC(=O)C[C@H](Cc2ccc(Cl)cc2)N(C)C1=O` (stereo partly drawn) [Compound 41, (4S,7S,14R,16aS,20aS)-14-benzyl-4-(4-chlorobenzyl)-11-(2-(4-(2-((dimethylamino)methyl)-1-methyl-1H-imidazol-5-yl)phenoxy)-4,6-difluorobenzyl)-7-(methoxymethyl)-5,10,16-trimethylhexadecahydrobenzo[l][1,4,7,11,14]pentaazacyclooctadecine-2,6,9,12,15(3H)-pentaone], the Max % inhibition worked out at 84.34% and the IC50 came to 4.7 nM.

Take `CN(C)Cc1ncc(-c2ccc(Oc3cc(Cl)ccc3CN3C(=O)C[C@@H](Cc4ccccc4)C(=O)N(C)[C@H]4CCCC[C@@H]4NC(=O)C[C@H](Cc4ccc(Cl)cc4)N(C)C(=O)[C@H](CO)NC(=O)[C@H]3CCC(=O)OC(C)(C)C)cc2)n1C` [Compound 287, tert-butyl 3-((4S,7S,10R,14R,16aS,20aS)-14-benzyl-11-(4-chloro-2-(4-(2-((dimethylamino)methyl)-1-methyl-1H-imidazol-5-yl)phenoxy)benzyl)-4-(4-chlorobenzyl)-7-(hydroxymethyl)-5,16-dimethyl-2,6,9,12,15-pentaoxodocosahydrobenzo[l][1,4,7,11,14]pentaazacyclooctadecin-10-yl)propanoate]: the Max % inhibition was 89.28% and the IC50 turned out to be 2.6 nM.
